Data on three compounds can be found in publication PMC6770006, “Novel Heat Shock Protein 90 Inhibitors Suppress P-Glycoprotein Activity and Overcome Multidrug Resistance in Cancer Cells” (International Journal of Molecular Sciences, 2019).

In general, IC50 refers to the midpoint of a concentration-inhibition curve. A higher IC50 goes with weaker potency.

For data set [1], the target named is T1, P-gp (Homo sapiens, UniProt P08183). The data set is described as follows: P-gp ATPase activity assay (Pgp-Glo). The class given is biochemical. The arrangement: purchased Promega. The following applies: 5: 5, 10, 20 µM; 7 and 9: 100, 250, 500 nM; Figure 5a. Here is the method: P-gp relies on the ATP hydrolysis energy to extrude the substrate outside the cell and compounds that interact with P-gp can stimulate or inhibit its ATPase activity. Compounds that are P-gp substrates usually stimulate its ATPase activity. Pgp-Glo™ assay system (Promega, Madison, WI, USA) detects the compound’s effect on recombinant human P-gp in a cell membrane fraction. P-gp ATPase activity was measured using luminescent Pgp-Glo™ assay kit according to manufacturer’s instructions. Briefly, ATP was first incubated with P-gp; then the P-gp ATPase reaction was stopped, and the remaining unmetabolized ATP was detected as a luciferase-generated luminescent signal. Pgp-dependent decreases in luminescence reflect ATP consumption by P-gp; thus, the greater the decrease in signal, the higher the P-gp activity. […] Verapamil and sodium orthovanadate, supplied in the assay kit were used as positive controls. Verapamil is a P-gp substrate and competitive inhibitor, and sodium orthovanadate is a noncompetitive inhibitor of P-gp ATPase activity. The luminescence of samples treated with increasing concentrations of compound 5 (5 µM, 10 µM and 20 µM), compound 7 (100 nM, 250 nM and 500 nM) and compound 9 (100 nM, 250 nM and 500 nM), was measured with a luminometer microplate reader (CHAMELEON™V, Hidex, Turku, Finland).
T1 sequence (P08183 whole entry): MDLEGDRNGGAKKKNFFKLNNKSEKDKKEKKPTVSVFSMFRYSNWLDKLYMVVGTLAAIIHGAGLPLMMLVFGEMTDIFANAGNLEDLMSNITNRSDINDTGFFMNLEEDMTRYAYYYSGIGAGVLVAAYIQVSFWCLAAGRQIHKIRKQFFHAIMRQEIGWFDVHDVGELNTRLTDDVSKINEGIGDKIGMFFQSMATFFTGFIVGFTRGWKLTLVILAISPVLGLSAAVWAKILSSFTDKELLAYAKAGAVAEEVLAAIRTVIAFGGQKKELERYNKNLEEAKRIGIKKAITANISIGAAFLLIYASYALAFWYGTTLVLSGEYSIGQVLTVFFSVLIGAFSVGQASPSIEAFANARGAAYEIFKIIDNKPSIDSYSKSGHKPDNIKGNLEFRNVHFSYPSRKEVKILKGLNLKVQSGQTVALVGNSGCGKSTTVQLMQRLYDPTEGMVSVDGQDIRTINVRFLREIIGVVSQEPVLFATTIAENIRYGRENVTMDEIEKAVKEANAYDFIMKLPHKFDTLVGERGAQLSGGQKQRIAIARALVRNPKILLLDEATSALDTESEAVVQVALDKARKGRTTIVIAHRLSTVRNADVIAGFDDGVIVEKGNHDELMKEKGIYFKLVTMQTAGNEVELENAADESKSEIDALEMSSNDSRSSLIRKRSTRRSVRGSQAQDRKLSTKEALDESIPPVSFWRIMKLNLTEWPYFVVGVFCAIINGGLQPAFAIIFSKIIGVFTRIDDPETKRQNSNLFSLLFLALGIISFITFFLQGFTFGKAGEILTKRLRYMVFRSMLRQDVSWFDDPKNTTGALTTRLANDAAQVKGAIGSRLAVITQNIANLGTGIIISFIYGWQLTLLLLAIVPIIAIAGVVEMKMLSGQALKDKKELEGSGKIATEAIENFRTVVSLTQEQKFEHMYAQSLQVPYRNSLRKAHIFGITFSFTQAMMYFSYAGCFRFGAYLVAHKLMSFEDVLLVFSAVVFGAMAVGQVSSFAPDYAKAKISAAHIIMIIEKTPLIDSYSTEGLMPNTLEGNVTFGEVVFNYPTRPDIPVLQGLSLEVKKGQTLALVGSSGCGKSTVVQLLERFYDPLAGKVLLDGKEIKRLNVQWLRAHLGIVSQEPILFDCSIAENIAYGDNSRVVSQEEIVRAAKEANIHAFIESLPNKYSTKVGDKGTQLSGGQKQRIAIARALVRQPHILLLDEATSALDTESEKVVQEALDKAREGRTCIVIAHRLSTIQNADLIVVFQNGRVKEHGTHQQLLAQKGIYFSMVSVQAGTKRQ

Data set [2] deals with T1, P-gp. The experiment in a line: Rhodamine 123 accumulation assay (P-gp activity, flow cytometry). The format is cell-based. The arrangement: P-gp overexpressing multidrug resistant DLD1-TxR cells were selected by continuous exposure to stepwise increasing concentrations of paclitaxel from DLD1 cells; endogenous in cells; host or cells: NCI-H460/R and DLD1-TxR (drug-selected MDR human cancer cells). The conditions noted are these: NCI-H460/R and DLD1-TxR, 30 min, Figure 3b. (A flow cytometer gives signals particle by particle.)

A further data set relates to NCI-H460 cells. The data set is described as follows: MTT assay, cell growth inhibition, NCI-H460. The class given is cell-based. The conditions noted are these: Homo sapiens, 72 h, three independent experiments. On the procedure: (§1) A series of 3-aryl-naphtho[2,3-d]isoxazole-4,9-diones were synthesized (Scheme 1, Figure 1) and their growth inhibition activity was tested in vitro on human non-small cell lung carcinoma NCI-H460, colorectal carcinoma DLD1 and their corresponding MDR cells (NCI-H460/R and DLD1-TxR, respectively), as well as normal embryonic lung fibroblasts MRC-5. The differences in cell growth inhibition between cancer and normal cells obtained by the MTT assay after 72 h treatment are presented in Table 1. The effect of compounds is presented as IC50 values that correspond to the 50% of cell growth inhibition.
(§2) Cell viability was assessed by the MTT assay (AppliChem GmbH, Darmstadt, Germany). Cells grown in 25 cm^2 tissue flasks were trypsinized and 1000 cells/well were seeded into flat-bottomed 96-well tissue culture plates and incubated overnight. Subsequently, the cells were treated with increasing concentrations of Hsp90 inhibitors for 72 h: compound 3 (0.1–2.5 µM), compound 4 (0.25–5 µM), compound 5 (0.5–25 µM), compound 6 (50–1000 nM), compound 7 (10–250 nM), compound 8 (0.25–5 µM), compound 9 (10–250 nM), compound 10 (0.5–25 µM), compound 13 (0.5–10 µM), compound 14 (1–25 µM), and compound 15 (10–250 nM). […] After treatment, MTT was added to each well in a final concentration of 0.2 mg/mL for 4 h. Formazan product was dissolved in 200 µl of DMSO, and the absorbance was measured at 540 nm using an automatic LKB 5060-006 Micro Plate Reader (Vienna, Austria). IC50 value was defined as a concentration of the drug that inhibited cell growth by 50% and was calculated by nonlinear regression analysis using GraphPad Prism 6.0 for Windows (La Jolla, CA, USA). Relative selectivity towards cancer cells was calculated as a relation between IC50 value obtained in MRC-5 cells and an average IC50 value from four tested cancer cell lines.

Another data set has as its system NCI-H460/R cells. The data set is described as follows: MTT assay, cell growth inhibition, NCI-H460/R (MDR). The class given is cell-based, human. The following applies: for Efficacy in MDR NCI-H460/R cells compared with sensitive NCI-H460: 72 h; for IC50: Homo sapiens, NCI-H460, 72 h, MDR cells. Here is the method: as §1
(§3) Human colorectal carcinoma (DLD1), non-small cell lung carcinoma (NCI-H460), and normal embryonic lung fibroblast (MRC-5) cell lines were purchased from the American Type Culture Collection, Rockville, MD. P-gp overexpressing multidrug resistant DLD1-TxR cells were selected by continuous exposure to stepwise increasing concentrations of paclitaxel from DLD1 cells, while NCI-H460/R cells were selected from NCI-H460 cells after DOX selective pressure. MDR cancer cell lines, DLD1-TxR and NCI-H460/R, and their sensitive counterparts were maintained in RPMI 1640 medium supplemented with 10% FBS, 2 mM L-glutamine, and 10,000 U/mL penicillin, 10 mg/mL streptomycin, 25 mg/mL amphotericin B solutions. MRC-5 cells were cultured in DMEM supplemented with 10% FBS, 4 g/L glucose, 2 mM L-glutamine and 5000 U/mL penicillin, 5 mg/mL streptomycin solution. All cell lines were sub-cultured at 72 h intervals using 0.25% trypsin/EDTA and seeded into a fresh medium at 8000 cells/cm^2. All cell lines were maintained at 37 °C in a humidified 5% CO2 atmosphere.
as §2

A further data set relates to DLD1 cells. The data set is described as follows: MTT assay, cell growth inhibition, DLD1. The following applies: Homo sapiens, DLD-1, 72 h. The format is cell-based. On the procedure: as §1, §2
For orientation: Tetrazolium dyes change colour on reduction, which living cells bring about.

The test system of the next data set is DLD1-TxR cells. The experiment in a line: MTT assay, cell growth inhibition, DLD1-TxR (MDR). The format is cell-based, human. The following applies: 72 h; for IC50: Homo sapiens, MDR cells. On the procedure:
as §1, §3, §2

Consider `O=C1c2ccccc2C(=O)c2c(-c3ccncc3)noc21` [Compound 7], for which, at P-gp [1], the “Effect on P-gp ATPase activity” value is “potent dose-dependent inhibition”. The “Concentration dependence of P-gp inhibition (Rho 123 accumulation)” value on P-gp [2] is “concentration dependent effect”. Also, the concentration for half-maximal inhibition (IC50) in the data set on NCI-H460 cells turned out to be 199 ± 5 nM; in the data set with NCI-H460/R cells, 231 ± 6 nM; with DLD1 cells, 156 ± 4 nM; in the data set with DLD1-TxR cells, 138 ± 3 nM. Besides, the “Efficacy in MDR NCI-H460/R cells compared with sensitive NCI-H460” value in the data set with NCI-H460/R cells is “evaded resistance in both MDR cancer cell lines”. For the same compound, the “Efficacy in MDR DLD1-TxR cells compared with sensitive DLD1” value in the data set on DLD1-TxR cells is “evaded resistance in both MDR cancer cell lines”.

With `O=C1c2ccccc2C(=O)c2c(-c3ccccc3O)noc21` [Compound 5], the “Effect on P-gp ATPase activity” value at P-gp [1] is on record as “smallest effect on ATPase activity”. At P-gp [2], the “Concentration dependence of P-gp inhibition (Rho 123 accumulation)” value is on record as “concentration dependent effect”. The IC50 with NCI-H460 cells worked out at 5720 ± 73 nM; with NCI-H460/R cells it was 25500 ± 925 nM; with DLD1 cells, 5680 ± 163 nM; with DLD1-TxR cells it was 11100 ± 304 nM. The “Efficacy in MDR NCI-H460/R cells compared with sensitive NCI-H460” value with NCI-H460/R cells is on record as “further compromised in the presence of MDR phenotype”. Moreover, the “Efficacy in MDR DLD1-TxR cells compared with sensitive DLD1” value in the data set on DLD1-TxR cells was “further compromised in the presence of MDR phenotype”.

Consider `O=C1c2ccccc2C(=O)c2c(-c3cccnc3)noc21` [Compound 9], for which the “Effect on P-gp ATPase activity” value at P-gp [1] was “significant inhibition”. The “Concentration dependence of P-gp inhibition (Rho 123 accumulation)” value at P-gp [2] is given as “concentration dependent effect”. Besides, the IC50 in the data set on NCI-H460 cells stood at 96 ± 2 nM; in the data set with NCI-H460/R cells, 172 ± 5 nM; with DLD1 cells, 45 ± 1 nM; with DLD1-TxR cells, 50 ± 1 nM.
